From PubChem BioAssay (NCI)
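The compound was tested at five concentrations on cells cultured in 96-well plates, with a 48-hour exposure period. GI50 is the concentration that inhibits growth by half. At the TGI there is no net growth.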

Columns and labels:
Assay in all cases: NCI tumour cell line growth inhibition, 48 h
[1] = system: COLO 205 colon
[2] = system: HOP-92 NSCLC
[3] = system: MALME-3M melanoma
[4] = system: OVCAR-5 ovarian
[5] = system: TK-10 renal
[6] = system: UO-31 renal
[7] = system: BT-549 breast
[8] = system: PC-3 prostate
[9] = system: SR leukemia
[10] = system: T-47D breast

| SMILES | TGI [1] [µM] | TGI [2] [µM] | TGI [3] [µM] | TGI [4] [µM] | TGI [5] [µM] | TGI [6] [µM] | TGI [7] [µM] | TGI [8] [µM] | TGI [9] [µM] | TGI [10] [µM] | GI50 [7] [µM] | GI50 [1] [µM] | GI50 [2] [µM] | GI50 [3] [µM] | GI50 [8] [µM] | GI50 [10] [µM] | GI50 [5] [µM] | GI50 [6] [µM] | GI50 [9] [µM] |
| --- | --- | --- | --- | --- | --- | --- | --- | --- | --- | --- | --- | --- | --- | --- | --- | --- | --- | --- | --- |
| COc1cc(/C=C/C(=O)c2sc(-n3nc(-c4ccccc4)cc3-c3ccccc3)nc2C)ccc1O | > 100 | > 100 | > 100 | > 100 | > 100 | > 100 | – | – | – | – | – | – | – | – | – | – | – | – | – |
| CCOC(=O)c1nc2ccc(C(F)(F)F)cc2nc1NCc1ccc(Cl)c(Cl)c1 | > 100 | 40.4 | 99.1 | > 100 | > 100 | > 100 | > 100 | 75.9 | > 100 | > 100 | – | – | – | – | – | – | – | – | – |
| COc1cc(Br)c(OC)c2c(OC)cc(C)cc12 | > 100 | – | > 100 | > 100 | > 100 | > 100 | > 100 | > 100 | 37.8 | > 100 | – | – | – | – | – | – | – | – | – |
| CC1(C)C(=O)N(O)C(C)(C)N1O | > 10 | > 10 | > 10 | > 10 | > 10 | – | > 10 | > 10 | > 10 | > 10 | – | – | – | – | – | – | – | – | – |
| CC1=NC(=O)C(C)(c2ccccc2)N1CCc1ccccc1 (configuration not stated) | > 100 | > 100 | > 100 | > 100 | > 100 | > 100 | > 100 | > 100 | > 100 | > 100 | – | – | – | – | – | – | – | – | – |
| Cc1nn2c(=O)c([N+](=O)[O-])c(/C=C/c3ccccc3)nc2s1 | 28.8 | > 100 | > 71.7 | > 100 | 41.3 | > 54 | 7.86 | > 100 | 6.52 | > 100 | – | – | – | – | – | – | – | – | – |
| CCOC(=O)/C(O)=C(/C=N\C(=S)Nc1ccccc1Cl)C(=O)OCC | > 100 | 90.9 | > 100 | > 100 | – | > 100 | – | > 100 | > 100 | > 100 | – | – | – | – | – | – | – | – | – |
| COc1ccc(/C=C2/C(C)=NN(c3cccc(Cl)c3)/C2=N/c2nc3ccccc3s2)cc1 | – | 47.7 | – | 69.6 | 68.8 | 44.1 | – | 38 | 62.6 | > 100 | – | – | – | – | – | – | – | – | – |
| Cc1occc1C(=S)Nc1ccc(Cl)c(C(=O)OCC(F)(F)F)c1 | 67.6 | 44.1 | 73.7 | > 100 | 43 | 39.1 | 42.7 | 57.8 | – | 72.4 | – | – | – | – | – | – | – | – | – |
| O=C(O)C1CC2C3CCC2C1C3=O (configuration not stated) | > 100 | > 100 | > 100 | > 100 | > 100 | > 100 | – | > 100 | > 100 | > 100 | – | – | – | – | – | – | – | – | – |
| c1ccc(Nc2nnc(CSc3nc(-c4ccccc4)c(-c4ccccc4)[nH]3)s2)cc1 | 25.6 | 37.7 | 34.6 | 43.6 | > 100 | 34.7 | – | – | 51.1 | – | – | – | – | – | – | – | – | – | – |
| N#CC(C#N)=CN1CCN(C(=O)c2ccco2)C1=S | 70.5 | > 100 | > 100 | – | 32.7 | 30.1 | 54.6 | > 100 | – | > 100 | 6.85 | 16.5 | 22.4 | 47.8 | 17.3 | 21.2 | 4.62 | 10.5 | – |
| CN(C)c1ccc(-c2c(C#N)c(N)[nH]c(=S)c2C#N)cc1 | > 100 | > 100 | > 100 | > 100 | > 100 | > 100 | > 100 | > 100 | > 100 | – | – | – | – | – | – | – | – | – | – |
| CCOC(=O)c1cc(Sc2ccc(N)c(C(=O)OCC)c2)ccc1N | > 100 | > 100 | > 100 | > 100 | – | – | > 100 | > 100 | > 100 | > 100 | – | – | – | – | – | – | – | – | – |
| COc1ccc2c(c1)CC[C@@H]1[C@@H]2CC[C@]2(C)C(=O)C3(CCCCC3)C[C@@H]12 | > 100 | > 100 | > 100 | – | > 100 | > 100 | > 100 | > 100 | > 100 | > 100 | > 100 | > 100 | > 100 | > 100 | > 100 | > 100 | > 100 | > 100 | > 100 |
| NC1CC(=O)c2cc(Cl)sc21 (configuration not stated) | > 100 | > 100 | > 100 | > 100 | > 100 | > 100 | > 100 | > 100 | – | > 100 | – | – | – | – | – | – | – | – | – |
| CCOC(=O)CSc1ccnc(=O)[nH]1 | > 100 | – | > 100 | > 100 | > 100 | > 100 | – | – | – | – | – | – | – | – | – | – | – | – | – |
| O=C(O)c1c[nH]c2c(Sc3ccccc3)nccc2c1=O | > 100 | > 100 | – | > 100 | > 100 | > 100 | > 100 | > 100 | – | > 100 | – | – | – | – | – | – | – | – | – |
| CN(C(=O)C12C3C4C1C1C2C3C41I)C(C)(C)C (configuration not stated) | > 100 | – | > 100 | > 100 | > 100 | > 100 | – | – | > 31.6 | – | – | – | – | – | – | – | – | – | – |
| C/C(=N\N)C(CN(C)C)C(c1ccccc1)c1c(O)c2ccccc2oc1=O (configuration not stated) | > 100 | > 100 | > 100 | > 100 | > 100 | > 100 | > 100 | > 100 | > 100 | – | – | – | – | – | – | – | – | – | – |
| CCCCCCn1c(SCC)c2ccccc2c1-c1nc(F)nc(F)n1 | > 100 | > 100 | > 100 | > 100 | > 100 | > 100 | – | – | > 100 | – | – | – | – | – | – | – | – | – | – |
| Cc1c2cnccc2c(C)c2c1[nH]c1ccc(O)cc12 | > 10 | – | 8.28 | > 10 | > 10 | – | > 10 | > 10 | 2.88 | > 10 | – | – | – | – | – | – | – | – | – |
